The target of assay [1] is HCV NS3-4A serine protease (full-length NS3-4A protein) (Hepatitis C virus genotype 1a (isolate 1) (HCV), UniProt P26664). The assay can be described thus: HCV NS3-4A protease assay. In kind it is biochemical, HCV genotype 1a. The conditions noted are these: strain HCV-1, fluorogenic peptide substrate, read-out: Protease assay Ex. 12 IC50. On the procedure: The inhibitory activity of certain compounds of Table A against HCV NS3-4A serine protease is determined in a homogenous assay using the full-length NS3-4A protein (genotype 1a, strain HCV-1) and a commercially available internally-quenched fluorogenic peptide substrate as described by Taliani, M., et al. 1996 Anal. Biochem. 240:60-67, which is incorporated by reference in its entirety.

A further assay concerns HCV. The conditions noted are these: ribavirin alone, cited from earlier work.

The source of these data is patent US8613914B2, “Peptidomimetic sulfamide compounds and antiviral uses thereof” (Novartis AG, priority 2009, dated 2013).

Chain of HCV NS3-4A serine protease (full-length NS3-4A protein) (P26664 1027-1657): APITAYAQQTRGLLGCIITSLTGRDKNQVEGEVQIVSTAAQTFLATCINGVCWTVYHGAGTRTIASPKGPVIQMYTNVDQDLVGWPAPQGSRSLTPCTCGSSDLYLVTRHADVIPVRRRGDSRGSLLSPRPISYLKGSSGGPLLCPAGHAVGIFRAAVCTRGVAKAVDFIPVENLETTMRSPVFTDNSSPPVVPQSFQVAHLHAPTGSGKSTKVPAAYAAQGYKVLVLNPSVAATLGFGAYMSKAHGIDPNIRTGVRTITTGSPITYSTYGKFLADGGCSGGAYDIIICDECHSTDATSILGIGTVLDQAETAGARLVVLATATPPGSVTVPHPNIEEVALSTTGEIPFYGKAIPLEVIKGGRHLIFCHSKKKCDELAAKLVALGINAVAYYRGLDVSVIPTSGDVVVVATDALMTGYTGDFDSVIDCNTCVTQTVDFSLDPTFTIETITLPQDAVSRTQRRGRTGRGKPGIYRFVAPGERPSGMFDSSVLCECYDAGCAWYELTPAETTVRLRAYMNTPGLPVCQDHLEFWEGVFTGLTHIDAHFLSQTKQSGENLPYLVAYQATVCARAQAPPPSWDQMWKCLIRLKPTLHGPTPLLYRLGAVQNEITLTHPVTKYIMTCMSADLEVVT
Chain of HCV NS3-4A serine protease (full-length NS3-4A protein) (P26664 1658-1711 partner): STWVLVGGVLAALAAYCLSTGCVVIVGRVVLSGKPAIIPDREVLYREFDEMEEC

With `C=C[C@@H]1C[C@]1(NC(=O)[C@@H]1C[C@@]2(CN1C(=O)[C@@H](NC(=O)[C@@H](NC(=O)c1ccc3c(ccn3C)c1)C1CCCCC1)C(C)(C)C)C(C)(C)C21CCC1)C(=O)NS(=O)(=O)N1CCCC1` [Compound 198, (5R,8S)-7-{(2S)-2-[(cyclohexyl{[(1-methyl-1H-indol-5-yl)carbonyl]amino}acetyl)amino]-3,3-dimethylbutanoyl}-10,10-dimethyl-N-{(1R,2S)-1-[(pyrrolidin-1-ylsulfonyl)carbamoyl]-2-vinylcyclopropyl}-7-azadispiro[3.0.4.1]decane-8-carboxamide], the 50% inhibitory concentration (IC50) in assay [1] is 40 nM. On to `C=C[C@@H]1C[C@]1(NC(=O)[C@@H]1C[C@@]2(CN1C(=O)[C@@H](NC(=O)[C@@H](NC(=O)c1cnc(C)cn1)C1CCCCC1)C(C)(C)C)C(C)(C)C21CCC1)C(=O)NS(=O)(=O)N1CCCC1` [Compound 199, (5R,8S)-7-{(2S)-2-[(cyclohexyl{[(5-methylpyrazin-2-yl)carbonyl]amino}acetyl)amino]-3,3-dimethylbutanoyl}-10,10-dimethyl-N-{(1R,2S)-1-[(pyrrolidin-1-ylsulfonyl)carbamoyl]-2-vinylcyclopropyl}-7-azadispiro[3.0.4.1]decane-8-carboxamide], for which, in assay [1], the half-inhibitory concentration (IC50) came to 14 nM. Turning to `C=C[C@@H]1C[C@]1(NC(=O)[C@@H]1C[C@@]2(CN1C(=O)[C@@H](NC(=O)[C@@H](NC(=O)CN(C)C)C1CCCCC1)C(C)(C)C)C(C)(C)C21CCC1)C(=O)NS(=O)(=O)N1CCCC1` [Compound 200, (5R,8S)-7-{(2S)-2-[(cyclohexyl{[(dimethylamino)acetyl]amino}acetyl)amino]-3,3-dimethylbutanoyl}-10,10-dimethyl-N-{(1R,2S)-1-[(pyrrolidin-1-ylsulfonyl)carbamoyl]-2-vinylcyclopropyl}-7-azadispiro[3.0.4.1]decane-8-carboxamide], the concentration for half-maximal inhibition (IC50) in assay [1] was 8 nM. Take `C=C[C@@H]1C[C@]1(NC(=O)[C@@H]1C[C@@]2(CN1C(=O)[C@@H](NC(=O)[C@@H](NC(=O)c1cnon1)C1CCCCC1)C(C)(C)C)C(C)(C)C21CCC1)C(=O)NS(=O)(=O)N1CCCC1` [Compound 201, (5R,8S)-7-[(2S)-2-({cyclohexyl[(1,2,5-oxadiazol-3-ylcarbonyl)amino]acetyl}amino)-3,3-dimethylbutanoyl]-10,10-dimethyl-N-{(1R,2S)-1-[(pyrrolidin-1-ylsulfonyl)carbamoyl]-2-vinylcyclopropyl}-7-azadispiro[3.0.4.1]decane-8-carboxamide]: the concentration for half-maximal inhibition (IC50) in assay [1] is 35 nM.

For `C=C[C@@H]1C[C@]1(NC(=O)[C@@H]1C[C@@]2(CN1C(=O)[C@@H](NC(=O)[C@@H](NC(=O)CN1CCN(C)CC1)C1CCCCC1)C(C)(C)C)C(C)(C)C21CCC1)C(=O)NS(=O)(=O)N1CCCC1` [Compound 202, (5R,8S)-7-{(2S)-2-[(cyclohexyl{[(4-methylpiperazin-1-yl)acetyl]amino}acetyl)amino]-3,3-dimethylbutanoyl}-10,10-dimethyl-N-{(1R,2S)-1-[(pyrrolidin-1-ylsulfonyl)carbamoyl]-2-vinylcyclopropyl}-7-azadispiro[3.0.4.1]decane-8-carboxamide], in assay [1], the IC50 worked out at 20 nM.

For `CC[C@@H]1C[C@]1(NC(=O)[C@@H]1C[C@@]2(CN1C(=O)[C@@H](NC(=O)[C@@H](NC(=O)[C@@H]1CCCCN1C(C)C)C1CCCCC1)C(C)(C)C)C(C)(C)C21CCC1)C(=O)NS(=O)(=O)N(CC)CC` [Compound 203, (5R,8S)-7-[(2S)-2-{[(2S)-2-cyclohexyl-2-({[(2S)-1-isopropylpiperidin-2-yl]carbonyl}amino)acetyl]amino}-3,3-dimethylbutanoyl]-N-(1-{[(diethylamino)sulfonyl]carbamoyl}-2-ethylcyclopropyl)-10,10-dimethyl-7-azadispiro[3.0.4.1]decane-8-carboxamide], the half-inhibitory concentration (IC50) in assay [1] is 8 nM. In the case of `NC(=O)c1ncn([C@@H]2O[C@H](CO)[C@@H](O)[C@H]2O)n1` [Ribavirin, ribavirin], the “serum levels of HCV-RNA” value with HCV (patients) was “does not lower serum levels of HCV-RNA”. Moreover, the “patients in whom serum amino transferase levels are reduced to normal” value in the assay on HCV is 40%.
